Source: patent US20240075000A1 (priority 2021, published 2024)

How the values were obtained:
[1] = system: resistance-trained adults; conditions: in vivo; cited from earlier work
[2] = system: patient with Alzheimer's disease; assay: Alzheimer's disease patient fatigue case; type: in vivo, human; conditions: caregiver testimonial
From the text: A patient with Alzheimer's disease experienced significant muscle and mental fatigue. […] The testimonial is shown below.

[3] = system: mitochondrial production and density; conditions: cited from earlier work
Mouse Soleus Muscle = conditions: normal cells, fatigue stimulated by electrical current applied to the muscle; cited from earlier work
cancer cells = conditions: glioblastoma; cited from earlier work
cancer patients = assay: cancer patient fatigue case reports (Examples 13-17); type: in vivo, human
From the text: A cancer patient with recurrent stage 4 glioblastoma multiforme encountered significant fatigue as part of the ongoing disease.
A cancer patient with Stage 2 primary prostate cancer experienced significant fatigue. […] The patient has been able to eliminate pathological fatigue for 4 years now and is continuing the dosage.
A cancer patient with stage 4 primary hepatocellular carcinoma experienced significant fatigue, and due to cancer progression, was placed in hospice.
A cancer patient with stage 4 breast cancer experienced pathological fatigue.
A cancer patient with stage 3 colon cancer experienced pathological fatigue. […] The patient continued to be fatigue-free and went into cancer remission, which was also fatigue free.

Parkinson's patients = assay: double blinded placebo-controlled trial in Parkinson's patients, MDS-UPDRS fatigue question 1.13; type: in vivo, human; conditions: 2 capsules benaGene (100 mg oxaloacetate/150 mg ascorbic acid) per day, 4 months, P value<0.05, 13 patients
Experimental: As used herein, the term “MDS-UPDRS” refers to the “Movement Disorder Society-Sponsored Revision of the United Parkinson's Disease Rating Scale” (Goetz et al, Movement Disorder Society-Sponsored Revision of the United Parkinson's Disease Rating Scale (MDS-UPDRS): Scale Presentation and Clinimetric Testing Results, Movement Disorders Vol. 23, No. 15, 2008, pp. 2129-2170).
Based on the findings of the Inventor, a clinical trial was performed on Parkinson's Disease patients. The trial used the MDS-UPDRS (Goetz et al, Movement Disorder Society-Sponsored Revision of the United Parkinson's Disease Rating Scale (MDS-UPDRS): Scale Presentation and Clinimetric Testing Results, Movement Disorders Vol. 23, No. 15, 2008, pp. 2129-2170) (45) as a validated method to clinically measure pathological fatigue in Parkinson's patients. The Fatigue question is as follows: • 1.13 Fatigue • Over the past week, have you usually felt fatigued? This feeling is not part of being sleepy or sad • 0: Normal: No fatigue • 1: Slight: Fatigue occurs.

ALS patient = ALS patient on long-term supplementation; type: in vivo, human; conditions: 3,000 mg daily, after 8 months
From the text: For ALS, this is surprising and welcome news as the anticipated decline rate for this period of time ranges from 12% to 43% as measured by the ALS FRS. (Ong M L, Tan P F, Holbrook J D. Predicting functional decline and survival in amyotrophic lateral sclerosis. PLoS One. 2017; 12(4):e0174925. Published 2017 Apr. 13. doi:10.1371/journal.pone.0174925).
The patient's email: • “Dear Alan, Good afternoon. […] We are thrilled! Could we please have some more medicine? Thanks!”

glucose uptake = conditions: diabetic patients and Alzheimer's patients; cited from earlier work
[4] = system: post-COVID-19 fatigue patient; assay: post-COVID-19 fatigue case, physician (Example 3); conditions: 500 mg BID
pneumonia patient = assay: fatigue after pneumonia, patient testimonial; type: in vivo, human; conditions: 500 mg daily
From the text: The Inventor has supplied Anhydrous Enol-Oxaloacetate for fatigue after pneumonia. Pneumonia patients often suffer from physiological fatigue. In a retrospective study of 506 adults with clinical and radiographic evidence of pneumonia, […] of the patients suffered from fatigue at 90 days after diagnosis. (Metlay J P, Fine M J, Schulz R, Marrie T J, Coley C M, Kapoor W N, et al. Measuring symptomatic and functional recovery in patients with community-acquired pneumonia. J Gen Intern Med. 1997; 12(7):423-30). […] The place where oxaloacetate made the most significant difference for me was in alleviation of the crushing fatigue that accompanied the pneumonia. […] On querying nurses and physical therapists about this response, the universal answer was that it was “typical.” Speaking with people who had had pneumonia at different ages—granted that this is anecdotal—garnered consistent stories of extreme fatigue and a slow recovery that took years to achieve prior energy levels even with people who had been physically active teenagers at the time. • I was in the hospital for 2 weeks and then in skilled care for about 6 weeks, putting me in the 40% of the population that don't manage to avoid hospitalization. […]

[5] = system: patients with post-COVID-19 fatigue; assay: clinical trial in Long Haul post-COVID-19 fatigue; conditions: oral 500 mg BID, 6 weeks
Experimental: Fatigue is assessed by the Chalder Fatigue Scale, the Fatigue Severity Scale, and PROMIS-Fatigue-Short Form 7a. Scores are summarized as means and standard deviations and confidence intervals will be calculated. Changes are also summarized as effect sizes. […] All patients provided written informed consent to participate in the study prior to being screened.
18 patients who suffered from “Long Haul” post-COVID-19 fatigue for an average of 6 months were recruited to a clinical trial.

[6] = system: patient diagnosed with Fibromyalgia; assay: Fibromyalgia patient fatigue case; type: in vivo, human
From the text: A patient diagnosed with Fibromyalgia had significant fatigue. […] They increased their dosage to 6 capsules per day and has seen more than a 50% improvement in their fatigue.

LD50 toxicity = conditions: in vivo
Experimental: The dose ratio between toxic and therapeutic effects is the therapeutic index and it can be expressed as the ratio LD50/ED50. […] The “no observable adverse effects level” (NOAEL) in a 90-day sub-chronic rat study was 500 mg/kg (the highest dose in the test).

patients with ME/CFS = assay: clinical trial in ME/CFS, three dosage levels; type: in vivo, human
fetus = conditions: in vivo; cited from earlier work

SMILES: Cn1c(=O)c2c(ncn2C)n(C)c1=O [Caffeine]
- effects on muscular performance [1]: minimal effects on muscular performance

SMILES: O=C(O)CC(=O)C(=O)O [oxaloacetate, 2-oxobutanedioic Acid]
- mental and physical pathological fatigue [2]: significantly reduces mental and physical pathological fatigue
- mitochondrial production and density [3]: increased mitochondrial production and density
- muscle endurance and muscle fatigue (Mouse Soleus Muscle): increase muscle endurance and reduce muscle fatigue
- glycolysis and formation of lactate (cancer cells): reducing both glycolysis and the formation of lactate
- pathological fatigue (cancer patients; Stage 2 primary prostate cancer, 1,000 mg daily, 4 years): ameliorated
- adverse events (cancer patients; glioblastoma patient, 6,000 mg daily for one year): without any significant adverse events
- side effects (cancer patients; hepatocellular carcinoma patient, 3,000 mg per day for 10 months): without side effects
- side effects (cancer patients; prostate cancer patient, 1,000 mg daily): No side effects
- fatigue associated with the cancer (cancer patients; recurrent stage 4 glioblastoma multiforme, 6,000 mg daily): ameliorated
- fatigue (cancer patients; stage 3 colon cancer, 1,000 mg per day (500 mg BID)): significant reduction in fatigue
- fatigue (cancer patients; stage 4 breast cancer, 1,000 mg per day, after 3 days): significant reduction in fatigue
- fatigue (cancer patients; stage 4 primary hepatocellular carcinoma, 3,000 mg per day): significant reduction in fatigue
- improvement of MDS-UPDRS fatigue score over baseline (Parkinson's patients): 28.7%
- function, fatigue/muscle function (ALS patient): no decline in function
- glucose uptake (glucose uptake): increase glucose uptake
- side effect reported by the patient [4]: nausea
- fatigue after Pneumonia (pneumonia patient): rapid resolution of fatigue
- adverse events during the trial [5]: no significant adverse events
- reduction in fatigue compared to baseline, PROMIS Fatigue Short Form 7a ([5]; 18 patients, P<0.005): 21%
- reduction in fatigue from baseline, Fatigue Severity Scale ([5]; 18 patients, P<0.005): 15%
- reduction of fatigue from baseline, Chalder Fatigue Scale ([5]; 18 patients, P<0.005): 45%
- reduction, Visual Analogue Fatigue Scale ([5]; 18 patients, P<0.05): 56%
- fatigue ([6]; 2 capsules of 100 mg per day): improvement
- improvement in fatigue ([6]; 6 capsules of 100 mg per day): > 50%
- LD50 (LD50 toxicity): above 5 g/kg of body weight
- reduction from baseline fatigue, Chalder Fatigue Scale (patients with ME/CFS; 500 mg BID, 2 weeks, N=22): 15.3%
- reduction in fatigue, Chalder Fatigue Scale (patients with ME/CFS; 500 mg BID, 6-weeks, N=22): 21.9%
- reduction in fatigue, Chalder Fatigue Scale (patients with ME/CFS; 1,000 mg BID, 6-weeks, N=25): 30.2%
- reduction in fatigue, Chalder Fatigue Scale (patients with ME/CFS; 1,000 mg TID, 2 weeks, N=22): 17.5%
- severe Adverse Effects recorded in the study (patients with ME/CFS; 69 patients, all dosage levels): no severe Adverse Effects
- patients in the study improved over historical placebo (patients with ME/CFS; historical placebo effect 5.9%): 76.8%
- patients who experienced insomnia (patients with ME/CFS; of 69, resolved by moving dosing to breakfast and lunch): 1 patient
- patients who experienced dyspepsia (patients with ME/CFS; of 69, resolved by taking with food): 4 patients

SMILES: CC(N)Cc1ccccc1 (centres unmarked) [amphetamine]
- animal reproduction studies, finding (fetus): adverse effect on the fetus

SMILES: C[C@H](N)Cc1ccccc1 [dextroamphetamine]
- animal reproduction studies, finding (fetus): adverse effect on the fetus

SMILES: COC(=O)C(c1ccccc1)C1CCCCN1 (centres unmarked) [methylphenidate]
- animal reproduction studies, finding (fetus): adverse effect on the fetus

SMILES: NC(=O)C[S+]([O-])C(c1ccccc1)c1ccccc1 (centres unmarked) [Modafinil]
- animal reproduction studies, finding (fetus): adverse effect on the fetus
